Tests used:
Caspase-8 = Caspase-8 (Homo sapiens, UniProt Q14790); assay: in vitro biochemical assay with purified recombinant Caspase-8 and fluorigenic substrate Ac-IETD-AFC; conditions: purified recombinant Caspase-8, Ac-IETD-AFC, various concentrations of compound
Protocol: The results of a HTS of a yeast-based NALP1 inflammasome assay are shown in FIG. 12 consisting of FIGS. 12A-G (A) NALP1 yeast screen controls. Yeast cells containing ASC/Nalp1ΔLRR/Caspase1 were plated at 1.88×10^5 cells/well in a 384 well plate in media containing 1% galactose/2% raffinose, with (squares) or without (diamonds) 400 μg/ml X-gal substrate. The plates were incubated for 72 hrs at 30° C. and the plates were read at OD620. (B) Yeast Screen of LOPAC compound library plate 4 for NALP1. Yeast cells containing ASC/NALP1/Caspase1 were plated at 1.88×10^5 cells/well in a 384 well plate in media containing 1% galactose, 2% raffinose, with or without 400 μg/ml X-gal. The plates were incubated for 72 hrs at 30° C. and the plates were read at OD620. The compounds were screened at 100 μM and “hits” were defined by >50% reduction (as shown). (C) Validation of HTS assay for Fas-FADD-Caspase-8 system. Yeast cells containing Fas/FADD/Caspase-8 were cultured in 384 well plates as above with (blue squares) or without (purple diamonds) Xgal substrate, the plates were incubated for 72 hrs at 30° C. and analyzed as above. (D) Example of library screening plate for Fas-FADD-Caspase-8. […] Plates were incubated for 48 hrs at 30° C. and OD620 values recorded. […] Data represent relative fluorescence units (RFU) assessed in the absence or presence of various concentrations of compound (CID-2531).

Fas/FADD/Caspase-8 = target: T1, Fas/FADD/Caspase-8 (Homo sapiens, UniProt P25445+Q13158+Q14790); assay: yeast Fas/FADD/Caspase-8 HTS assay with counter-screen strains (lacZ, Asc/Caspase-1, empty vector); assay type: cell-based; conditions: 384 well, OD620, 2-4 days at 30° C., versus lacZ, Asc/Caspase-1 and empty vector strains
T1 construct: a small amount of each full-length Caspase construct was expressed with a large amount of adaptor protein FADD; HA (C); expressed in transfected cells; host or cells: Saccharomyces cerevisiae EGY48
Protocol: The results of a HTS of a yeast-based NALP1 inflammasome assay are shown in FIG. 12 consisting of FIGS. 12A-G (A) NALP1 yeast screen controls. Yeast cells containing ASC/Nalp1ΔLRR/Caspase1 were plated at 1.88×10^5 cells/well in a 384 well plate in media containing 1% galactose/2% raffinose, with (squares) or without (diamonds) 400 μg/ml X-gal substrate. The plates were incubated for 72 hrs at 30° C. and the plates were read at OD620. (B) Yeast Screen of LOPAC compound library plate 4 for NALP1. Yeast cells containing ASC/NALP1/Caspase1 were plated at 1.88×10^5 cells/well in a 384 well plate in media containing 1% galactose, 2% raffinose, with or without 400 μg/ml X-gal. The plates were incubated for 72 hrs at 30° C. and the plates were read at OD620. The compounds were screened at 100 μM and “hits” were defined by >50% reduction (as shown). (C) Validation of HTS assay for Fas-FADD-Caspase-8 system. Yeast cells containing Fas/FADD/Caspase-8 were cultured in 384 well plates as above with (blue squares) or without (purple diamonds) Xgal substrate, the plates were incubated for 72 hrs at 30° C. and analyzed as above. (D) Example of library screening plate for Fas-FADD-Caspase-8. […] Plates were incubated for 48 hrs at 30° C. and OD620 values recorded. […] Data represent relative fluorescence units (RFU) assessed in the absence or presence of various concentrations of compound (CID-2531). […]

Caspases = assay: validation of 384 well yeast-based Caspase-dependent lacZ reporter gene assays with pharmacological inhibitors; assay type: cell-based, human; conditions: 384 well yeast-based Caspase-dependent reporter gene assay
Source text: When converting the yeast-based protease reporter system to HTS assay, conditions from agar plates to liquid medium in microtiter wells must be revised. This revision comprises, utilizing the measured β-galactosidase produced by yeast carrying the Caspase-cleavable reporter proteins, and assaying the colorimetric product (OD620nm) derived from X-gal substrate in 384 well plates, as a measure of the lacZ reporter gene activity. We compared β-galactosidase activity produced in the presence or absence of the broad-spectrum caspase inhibitory compound, zVAD-fmk ([…]-Valinyl-Alaninyl-Aspartyl-fluoromethylketone). Among the variables that were initially interrogated were initial seeding cell density, time of culture, concentration of X-gal substrate, and supporting carbohydrate (raffinose vs mannose). Note that it was determined that it is not advisible to employ glucose in yeast media because it represses the GAL1 promoter used in some plasmids. An example of data obtained using the plural-component system of Fas/FADD/Caspase-8 is presented. All variables tested altered the signal:noise ratio of the assay. […] For the two-component system of ASC/Caspase-1 and for the plural-component system of NALP1ΔLRR/ASC/Caspase-1, the same conditions were optimal, among those tested (not shown). For the Fas/Fadd/Caspase 8, the caspase and adaptor protein (Fadd) were expressed at relatively small amounts (a weak promoter and low copy number plasmid are used) and the upstream activator (Fas) was expressed in a large amount.
The 384 well assay format was further validated, using zVAD-fmk, a peptidyl inhibitor with broad-spectrum activity against animal Caspases. […]
The validation results of a yeast-based Caspase assay using a pharmacological inhibitor of Caspases are shown in FIG. 11 consisting of FIGS. 11A-C (A) Caspase-1, single-component assay. […] For (A-C), relative absorbance at 620 nm was measured (mean ±std dev; n=3-5 independent experiments). […]
Assays were performed in a total volume of […] in triplicate. […] Absorbance at 620 nm was measured 2-3 days after culture at 30° C.

T1 sequence (Q14790 whole entry): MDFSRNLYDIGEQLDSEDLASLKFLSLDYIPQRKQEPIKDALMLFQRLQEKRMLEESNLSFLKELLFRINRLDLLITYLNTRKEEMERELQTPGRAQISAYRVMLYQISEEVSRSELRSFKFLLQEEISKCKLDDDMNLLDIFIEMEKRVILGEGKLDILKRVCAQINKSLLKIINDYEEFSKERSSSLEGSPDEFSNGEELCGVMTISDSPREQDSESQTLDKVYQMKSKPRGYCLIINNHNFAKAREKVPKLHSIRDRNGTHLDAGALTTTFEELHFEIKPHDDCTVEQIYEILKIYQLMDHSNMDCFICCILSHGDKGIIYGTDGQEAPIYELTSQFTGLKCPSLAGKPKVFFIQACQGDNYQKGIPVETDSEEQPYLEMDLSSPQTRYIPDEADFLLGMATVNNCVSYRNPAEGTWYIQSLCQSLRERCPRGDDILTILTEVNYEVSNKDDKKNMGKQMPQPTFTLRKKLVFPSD
T1 sequence (Q13158 whole entry): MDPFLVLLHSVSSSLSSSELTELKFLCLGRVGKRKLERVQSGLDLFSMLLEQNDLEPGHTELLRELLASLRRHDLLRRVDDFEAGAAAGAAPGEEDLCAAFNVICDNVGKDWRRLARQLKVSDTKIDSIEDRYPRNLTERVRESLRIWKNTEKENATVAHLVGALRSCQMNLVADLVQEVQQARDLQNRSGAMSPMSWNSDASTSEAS
T1 sequence (P25445 26-335): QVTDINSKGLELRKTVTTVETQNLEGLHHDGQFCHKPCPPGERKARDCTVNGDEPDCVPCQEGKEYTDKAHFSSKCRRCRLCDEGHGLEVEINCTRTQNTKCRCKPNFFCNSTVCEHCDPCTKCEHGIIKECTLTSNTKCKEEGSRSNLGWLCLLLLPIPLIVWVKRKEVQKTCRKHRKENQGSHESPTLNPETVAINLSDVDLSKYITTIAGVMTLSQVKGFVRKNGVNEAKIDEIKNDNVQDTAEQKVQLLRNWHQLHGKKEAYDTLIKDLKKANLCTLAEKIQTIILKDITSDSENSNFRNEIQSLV
Chain of Caspase-8 (Q14790 217-479): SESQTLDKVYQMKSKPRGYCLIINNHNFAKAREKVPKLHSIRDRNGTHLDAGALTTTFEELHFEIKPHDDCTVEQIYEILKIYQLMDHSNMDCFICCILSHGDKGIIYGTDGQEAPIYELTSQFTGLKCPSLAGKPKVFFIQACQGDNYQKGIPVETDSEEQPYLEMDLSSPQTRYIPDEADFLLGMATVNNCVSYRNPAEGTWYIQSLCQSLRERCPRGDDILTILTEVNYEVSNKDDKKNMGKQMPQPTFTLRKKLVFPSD

SMILES | selective inhibition of Fas-FADD-Caspase-8 (Fas/FADD/Caspase-8) | further results
Clc1ccc(C(c2ccc(Cl)cc2)n2cc[n+](CC(OCc3ccc(Cl)cc3Cl)c3ccc(Cl)cc3Cl)c2)cc1 (stereo not shown) [CID-2531] | – | inhibition of Caspase-8 (relative fluorescence units) (Caspase-8): evidence of inhibition of Caspase-8
c1ccc2c(c1)[I+]c1ccccc1-2 [CID-3101] | evidence of selective inhibition | –
C[n+]1cc2c3c(ccc2c2ccc4cc5c(cc4c21)OCO5)OCO3 [CID-5154] | evidence of selective inhibition | –
CCCC[C@@H](C=O)NC(=O)[C@H](CC(C)C)NC(=O)OCc1ccccc1 [Calpain inhibitor, calpeptin] | – | effect on β-galactosidase activity / activation of the lacZ reporter gene (Caspases): did not suppress activation of the lacZ reporter gene

Source: patent US20100028892A1, “YEAST BASED EXPRESSION OF PROTEASES AND METHODS OF USE” (Burnham Institute for Medical Research, priority 2008, published 2010)
